Assay results published in patent publication US5891912A, “1,3-dialkylurea derivatives having a hydroxyl group” (Santen Pharmaceutical Co., Ltd., priority 1994, dated 1999).

What follows are molecules tested against T1, endopeptidase 24.11 (Rattus norvegicus, UniProt P07861) (assay: inhibition of endopeptidase 24.11 activity (cleavage of N-dansyl-D-alanyl-glycyl-p-nitrophenylalanyl-glycine, DAGNPG; rat kidney enzyme preparation)). Settings: DAGNPG 50 μM, pH 7.4, 37° C., 30 minutes, read-out: IC50 (concentration required to inhibit endopeptidase 24.11 by 50%).
T1 construct: was prepared by extracting from a rat kidney; from tissue; host or cells: Wistar rat kidney, homogenate pellet after ultracentrifugation (crude membrane preparation)
T1 sequence (P07861 1-750): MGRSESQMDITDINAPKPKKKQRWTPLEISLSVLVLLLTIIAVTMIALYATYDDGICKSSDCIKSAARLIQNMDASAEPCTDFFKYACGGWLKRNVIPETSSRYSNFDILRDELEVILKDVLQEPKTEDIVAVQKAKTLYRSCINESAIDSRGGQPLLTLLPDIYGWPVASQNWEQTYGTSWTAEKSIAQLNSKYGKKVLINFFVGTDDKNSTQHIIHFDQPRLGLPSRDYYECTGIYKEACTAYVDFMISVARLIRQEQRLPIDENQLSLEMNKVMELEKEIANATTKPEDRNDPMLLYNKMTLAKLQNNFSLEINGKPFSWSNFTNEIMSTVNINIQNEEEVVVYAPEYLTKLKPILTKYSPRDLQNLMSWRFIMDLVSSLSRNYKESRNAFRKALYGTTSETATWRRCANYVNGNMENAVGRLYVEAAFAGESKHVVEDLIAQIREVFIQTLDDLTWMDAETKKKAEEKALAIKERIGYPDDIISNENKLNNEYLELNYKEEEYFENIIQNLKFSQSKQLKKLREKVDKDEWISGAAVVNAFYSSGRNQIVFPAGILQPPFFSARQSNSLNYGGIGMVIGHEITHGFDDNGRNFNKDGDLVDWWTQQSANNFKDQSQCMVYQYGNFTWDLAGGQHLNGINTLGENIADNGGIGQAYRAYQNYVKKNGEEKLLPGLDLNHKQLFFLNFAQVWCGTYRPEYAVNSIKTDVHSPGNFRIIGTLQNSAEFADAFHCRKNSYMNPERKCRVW
Assay type: biochemical, Wistar rat
Source text: As a method for measuring an endopeptidase 24.11 activity, Florentin et al. had reported a method for measuring the enzyme activity by a degree of cleavage of a peptide bond between glycine and p-nitrophenylalanine using N-dansyl-D-alanyl-glycyl-p-nitrophenylalanyl-glycine (DAGNPG) as a substrate (Anal. Biochem., 141, 62-69 (1984)). An effect of the compounds of the invention on endopeptidase 24.11 was examined according to the method described in the literature.
An enzyme preparation used in this pharmacological test was prepared by extracting from a rat kidney by the following method according to the method of Malfloy et al. (J. Biol. Chem., 259, 14365-14370 (1984)).
A kidney was excised from a Wistar rat. The kidney was homogenized in Tris-hydrochloric acid buffer (5 mM, pH 7.4, containing 125 mM D-mannitol and 12 mM magnesium chloride). The homogenate was centrifuged at low speed (1,000×g) to give a supernatant. The supernatant was ultracentrifuged ([…]) for 120 minutes. The resulting pellet was suspended in Tris-hydrochloric acid buffer (2.5 mM, pH 7.4, containing 62.5 mM D-mannitol and 6 mM magnesium chloride). The suspension was centrifuged at low speed and then ultracentrifuged again. The resulting pellet was suspended in HEPES buffer (5 mM, pH 7.4) to give the enzyme preparation.
In order to examine the effect of the compounds of the invention on the enzyme preparation, reactions were performed under the following condition using mixed solutions consisting of the composition shown in Table 1. […]
______________________________________
Enzyme preparation 0.3-0.5 μg protein
The above-mentioned solution (150 μl) was incubated at 37° C. for 30 minutes and then boiled at 100° C. for 5 minutes. To the solution was added 1.35 ml of Tris-hydrochloric acid buffer (50 mM, pH 7.4). The mixture was centrifuged at moderate speed (5,000×g) for 5 minutes to give a supernatant. Fluorescence intensity of the supernatant (excitation at 342 nm of wave length and emission at 562 nm) was measured.
The degree of the inhibitory effect of each test compound on the enzyme preparation was expressed by the inhibition rate calculated by the following equation. [formula]
A: fluorescence intensity of the sample in the absence of the test compound
B: fluorescence intensity of the sample in the presence of the test compound

| SMILES | IC50 [nM] |
| --- | --- |
| CC(C)CN(CC(O)C(=O)O)C(=O)N[C@@H](Cc1ccc(-c2ccccc2)cc1)C(=O)O (mixture of isomers) [Compound No. 3-1, (2S)-3-(4-Biphenylyl)-2-[3-[(2RS)-2-carboxy-2-hydroxyethyl]-3-isobutylureido]propionic acid] | 1.1 |
| CC(C)CN(C[C@@H](O)C(=O)O)C(=O)N[C@@H](Cc1ccc(-c2ccccc2)cc1)C(=O)O [Compound No. 8-3, (2S)-3-(4-Biphenylyl)-2-[3-[(2R)-2-carboxy-2-hydroxyethyl]-3-isobutylureido]propionic acid] | 2.1 |
| CC(C)CN(CC(O)C(=O)O)C(=O)N[C@H](C(=O)O)c1ccccc1 (mixture of isomers) [Compound No. 3-4, (2RS)-3-[3-[(S)-α-Carboxybenzyl]-1-isobutylureido]-2-hydroxypropionicacid] | 65 |
| CC(C)CN(CC(O)C(=O)O)C(=O)N[C@@H](Cc1ccccc1)C(=O)O (mixture of isomers) [Compound No. 2-1, (2S)-2-[3-[(2RS)-2-Carboxy-2-hydroxyethyl]-3-isobutylureido]-3-phenylpropionic acid] | 5.4 |
| CC(C)CN(CC(O)C(=O)O)C(=O)N[C@@H](Cc1ccc(-c2ccc(F)cc2)cc1)C(=O)O (mixture of isomers) [Compound No. 3-2, (2S)-2-[3-[(2RS)-2-Carboxy-2-hydroxyethyl]-3-isobutylureido]-3-[4-(4-fluorophenyl)phenyl]propionic acid] | 3.1 |

Molecules with a lower IC50, results first:

| IC50 [nM] | SMILES |
| --- | --- |
| 0.95 | CC(C)CN(C[C@H](O)C(=O)O)C(=O)N[C@@H](Cc1ccc(-c2ccccc2)cc1)C(=O)O [Compound No. 8-2, (2S)-3-(4-Biphenylyl)-2-[3-[(2S)-2-carboxy-2-hydroxyethyl]-3-isobutylureido]propionic acid] |
| 0.16 | CC(C)CN(C[C@H](O)C(=O)NO)C(=O)N[C@@H](Cc1ccc(-c2ccccc2)cc1)C(=O)O [Compound No. 8-9, (2S)-3-(4-Biphenylyl)-2-[3-[(2S)-2-hydroxy-2-hydroxycarbamoylethyl]-3-isobutylureido]propionic acid] |
| 0.32 | CC(C)CN(C[C@H](O)C(=O)NO)C(=O)N[C@@H](Cc1ccccc1)C(=O)O [Compound No. 8-1, (2S)-2-[3-[(2S)-2-Hydroxy-2-hydroxycarbamoylethyl]-3-isobutylureido]-3-phenylpropionic acid] |
| 0.27 | CC(C)CN(C[C@H](O)C(=O)NO)C(=O)N[C@@H](Cc1ccc2ccccc2c1)C(=O)O [Compound No. 9-1, (2S)-2-[3-[(2S)-2-Hydroxy-2-hydroxycarbamoylethyl]-3-isobutylureido]-3-(2-naphthyl)propionic acid] |
